In patent US20230118795A1, “ARYL OR HETEROARYL PYRIDONE OR PYRIMIDINE DERIVATIVE, PREPARATION METHOD AND USE THEREOF” (SUZHOU ZELGEN BIOPHARMACEUTICALS CO., LTD., priority 2020, published 2023) one finds IC50 data, which are given here for 18 compounds.

The structures appear in SMILES notation.

The first assay concerns NCI-H358 (KRAS^G12C mutation) cell. Put plainly: Cell assay of antiproliferative activity against NCI-H358 cell (Celltiter-Glo, 5 days). It is filed as cell-based. The conditions noted are these: 5 days incubation. The gist of the method: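 KRAS G12C NCI-H358 cells were plated in 384-well format and incubated overnight before compound addition. Compounds were added as a 10-point series (diluted from 50 μM to 0.003 μM before transfer) and incubated 5 days. Viability by CellTiter-Glo luminescence, with IC50 from curve fitting.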
For `C=CC(=O)N1CCN(c2nc(=O)n(-c3c(C(C)C)cccc3S(C)(=O)=O)c3nc(-c4c(Cl)ccc5cn[nH]c45)c(F)cc23)[C@@H](C)C1` [Example 75], the IC50 was greater than 10 µM. With `C=CC(=O)N1CCN(c2nc(=O)n(-c3cccnc3S(C)(=O)=O)c3nc(-c4c(O)cccc4F)c(F)cc23)[C@@H](C)C1` [Example 88, 4-((S)-4-acryloyl-2-methylpiperazin-1-yl)-6-fluoro-7-(2-fluoro-6-hydroxyphenyl)-1-(2-(methylsulfonyl)pyridin-3-yl) pyridino [2,3-d] pyrimidin-2(1H)-one], the IC50 lay within 1 to 10 µM. Still for that read-out and setting: next, `C=CC(=O)N1CCN(c2nc(=O)n(-c3cnccc3S(C)(=O)=O)c3nc(-c4c(O)cccc4F)c(F)cc23)[C@@H](C)C1` [Example 89]: 1 to 10 µM. Still for that read-out and setting: next, `C=CC(=O)N1CCN(c2nc(=O)n(-c3ccccc3S(C)(=O)=O)c3nc(-c4c(O)cccc4F)c(F)cc23)CC1CC#N` (stereo not drawn) [Example 90, 2-(1-acryloyl-4-(6-fluoro-7-(2-fluoro-6-hydroxyphenyl)-1-(2-(methylsulfonyl)phenyl)-2-oxo-1,2-dihydropyridino [2,3-d]pyrimidin-4-yl)piperazin-2-yl) acetonitrile]: 1 to 10 µM; `C=CC(=O)N1CCN(c2nc(=O)n(-c3c(C)cccc3S(C)(=O)=O)c3nc(-c4c(O)cccc4F)c(F)cc23)CC1CC#N` (stereo not drawn) [Example 91, 2-(1-acryloyl-4-(6-fluoro-7-(2-fluoro-6-hydroxyphenyl)-1-(2-methyl-6-(methylsulfonyl)phenyl)-2-oxo-1,2-dihydropyridino [2,3-d]pyrimidin-4-yl)piperazin-2-yl) acetonitrile]: 1 to 10 µM. Same read-out and setting: next, `C=CC(=O)N1CCN(c2nc(=O)n(-c3cccnc3S(C)(=O)=O)c3nc(-c4c(O)cccc4F)c(F)cc23)CC1CC#N` (stereo not drawn) [Example 92, 2-(1-acryloyl-4-(6-fluoro-7-(2-fluoro-6-hydroxyphenyl)-1-(2-(methylsulfonyl)pyridin-3-yl)-2-oxo-1,2-dihydropyridino [2,3-d]pyrimidin-4-yl)piperazin-2-yl) acetonitrile]: greater than 10 µM.

Staying with this assay, now noted: Homo sapiens, NCI-H358, 120 h, 5 days incubation.
`C=CC(=O)N1CCN(c2nc(=O)n(-c3c(C(C)C)cccc3S(C)(=O)=O)c3nc(-c4ccn[nH]4)c(F)cc23)[C@@H](C)C1` [Example 69, (S)-4-(4-acryloyl-2-methylpiperazin-1-yl)-6-fluoro-1-(2-isopropyl-6-(methylsulfonyl)phenyl)-7-(1H-pyrazol-5-yl) pyridino[2,3-d] pyrimidin-2(1H)-one] yielded an IC50 greater than 10 µM. On the same count and under the same terms, then `C=CC(=O)N1CCN(c2nc(=O)n(-c3c(C(C)C)cccc3S(C)(=O)=O)c3nc(-c4cncn4C)c(F)cc23)[C@@H](C)C1` [Example 70, (S)-4-(4-acryloyl-2-methylpiperazin-1-yl)-6-fluoro-1-(2-isopropyl-6-(methylsulfonyl)phenyl)-7-(1-methyl-1H-imidazol-5-yl) pyridino [2,3-d] pyrimidin-2 (1H)-one], with greater than 10 µM.

On to `C=CC(=O)N1CCN(c2nc(=O)n(-c3c(C(C)C)cccc3S(C)(=O)=O)c3nc(-c4ccc[nH]c4=O)c(F)cc23)[C@@H](C)C1` [Example 71, (S)-4-(4-acryloyl-2-methylpiperazin-1-yl)-6-fluoro-1-(2-isopropyl-6-(methylsulfonyl)phenyl)-7-(2-oxo-1,2-dihydropyridin-3-yl) pyridino[2,3-d] pyrimidin-2 (1H)-one], for which the IC50 is greater than 10 µM. On the same count and under the same terms, then `C=CC(=O)N1CCN(c2nc(=O)n(-c3c(C(C)C)cccc3S(C)(=O)=O)c3nc(-c4cccc(=O)[nH]4)c(F)cc23)[C@@H](C)C1` [Example 72, (S)-4-(4-acryloyl-2-methylpiperazin-1-yl)-6-fluoro-1-(2-isopropyl-6-(methylsulfonyl)phenyl)-7-(6-oxo-1,6-dihydropyridin-2-yl) pyridino[2,3-d] pyrimidin-2 (1H)-one], with greater than 10 µM; and `C=CC(=O)N1CCN(c2nc(=O)n(-c3c(C(C)C)cccc3S(C)(=O)=O)c3nc(-c4cccn(C)c4=O)c(F)cc23)[C@@H](C)C1` [Example 73, (S)-4-(4-acryloyl-2-methylpiperazin-1-yl)-6-fluoro-1-(2-isopropyl-6-(methylsulfonyl)phenyl)-7-(1-methyl-2-oxo-1,2-dihydropyridin-3-yl) pyridino[2,3-d] pyrimidin-2 (1H)-one], with greater than 10 µM. The compound `C=CC(=O)N1CCN(c2nc(=O)n(-c3c(C(C)C)cccc3S(C)(=O)=O)c3nc(-c4cccc(=O)n4C)c(F)cc23)[C@@H](C)C1` [Example 74, (S)-4-(4-acryloyl-2-methylpiperazin-1-yl)-6-fluoro-1-(2-isopropyl-6-(methylsulfonyl)phenyl)-7-(1-methyl-6-oxo-1,6-dihydropyridin-2-yl) pyridino[2,3-d] pyrimidin-2 (1H)-one] came in with an IC50 greater than 10 µM. Still for that read-out and setting: then `C=CC(=O)N1CCN(c2nc(=O)n(-c3c(C(C)C)cccc3S(C)(=O)=O)c3nc(-c4c(C)ncn4C)c(F)cc23)[C@@H](C)C1` [Example 76, 4-((S)-4-acryloyl-methylpiperazin-1-yl)-7-(1,4-dimethyl-1H-imidazol-5-yl)-6-fluoro-1-(2-isopropyl-6-(methylsulfonyl)phenyl) pyridino [2,3-d] pyrimidin-2 (1H)-one], with greater than 10 µM; and `C=CC(=O)N1CCN(c2nc(=O)n(-c3c(C(C)C)cccc3S(C)(=O)=O)c3nc(-c4c(F)cccc4C(=O)OC)c(F)cc23)[C@@H](C)C1` [Example 77], with greater than 10 µM. The same measure, in the same setting: next, `C=CC(=O)N1C[C@H](C)N(c2nc(=O)n(-c3c(C(C)C)cccc3S(C)(=O)=O)c3nc(-c4c(O)cccc4F)c(F)cc23)C[C@H]1C` [Example 78A]: 0.17 µM; `C=CC(=O)N1CCN(c2nc(=O)n(-c3ccccc3S(C)(=O)=O)c3nc(-c4c(O)cccc4F)c(F)cc23)[C@@H](C)C1` [Example 85, 4-((S)-4-acryloyl-2-methylpiperazin-1-yl)-6-fluoro-7-(2-fluoro-6-hydroxyphenyl)-1-(2-(methylsulfonyl)phenyl) pyridino[2,3-d] pyrimidin-2(1H)-one]: less than 1 µM. On the same count and under the same terms, then `C=CC(=O)N1CCN(c2nc(=O)n(-c3ccccc3S(=O)(=O)C(C)C)c3nc(-c4c(O)cccc4F)c(F)cc23)[C@@H](C)C1` [Example 86, 4-((S)-4-acryloyl-2-methylpiperazin-1-yl)-6-fluoro-7-(2-fluoro-6-hydroxyphenyl)-1-(2-(isopropylsulfonyl)phenyl) pyridino[2,3-d] pyrimidin-2(1H)-one], with less than 1 µM; and `C=CC(=O)N1CCN(c2nc(=O)n(-c3c(C)cccc3S(C)(=O)=O)c3nc(-c4c(O)cccc4F)c(F)cc23)[C@@H](C)C1` [Example 87, 4-((S)-4-acryloyl-2-methylpiperazin-1-yl)-6-fluoro-7-(2-fluoro-6-hydroxyphenyl)-1-(2-methyl-6-(methylsulfonyl)phenyl) pyridino[2,3-d] pyrimidin-2(1H)-one], with less than 0.1 µM.
